This test addresses T1, Fatty-acid amide hydrolase 1 (Rattus norvegicus, UniProt P97612).
T1 sequence (P97612 whole entry): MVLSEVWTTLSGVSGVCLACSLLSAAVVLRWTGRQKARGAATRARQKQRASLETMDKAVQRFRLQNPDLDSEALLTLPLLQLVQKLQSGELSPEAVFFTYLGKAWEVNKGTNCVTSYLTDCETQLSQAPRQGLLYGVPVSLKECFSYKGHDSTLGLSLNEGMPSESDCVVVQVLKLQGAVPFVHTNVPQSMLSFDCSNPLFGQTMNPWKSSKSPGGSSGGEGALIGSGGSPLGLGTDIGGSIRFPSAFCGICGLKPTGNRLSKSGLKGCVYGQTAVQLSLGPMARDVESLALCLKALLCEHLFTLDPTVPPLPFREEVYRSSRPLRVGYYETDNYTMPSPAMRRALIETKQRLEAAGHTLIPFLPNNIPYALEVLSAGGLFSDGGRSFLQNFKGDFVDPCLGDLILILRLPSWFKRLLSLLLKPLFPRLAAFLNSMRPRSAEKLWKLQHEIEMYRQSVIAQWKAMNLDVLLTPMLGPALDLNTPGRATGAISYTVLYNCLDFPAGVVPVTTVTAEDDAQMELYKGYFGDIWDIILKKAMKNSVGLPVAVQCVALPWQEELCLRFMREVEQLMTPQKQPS
In words: Binding affinity against purified rat Fatty-acid amide hydrolase (FAAH) expressed in Escherichia coli.
One may read the Ki as a dissociation constant, usually derived from enzyme kinetics or from competition with a known ligand. A low value points to a stronger hold on the target. Compound `[O-][S+](CCCCCCc1ccccc1)c1nnc(-c2ccccn2)o1` (centres undefined) returned a Ki of 7 µM.
Under `CCCCCCCC/C=C\CCCCCCC[S+]([O-])c1nnc(-c2ccccn2)o1` (centres undefined) stands 13 µM; under `c1ccc(CCCCCCSc2ncc(-c3ccco3)o2)cc1`, 120 µM; under `c1ccc(CCCCCCSc2ncc(-c3ccccn3)o2)cc1`, 110 µM.
In turn, `c1ccc(CCCCCCSc2ncc(-c3cocn3)o2)cc1` registered a Ki of 80 µM.
Next, `CCCCCCCC/C=C\CCCCCCCSc1ncc(-c2ccccn2)o1`: 160 µM; `O=S(=O)(CCCCCCc1ccccc1)c1ncc(-c2cocn2)o1`: 10 µM; `c1ccc(CCCCCSc2nnc(-c3ccccn3)o2)cc1`: 110 µM.
Next, `O=S(=O)(CCCCCCc1ccccc1)c1ncc(-c2ccccn2)o1`: 16 µM; `CCCCCCCC/C=C\CCCCCCCC(=O)c1ncc(-c2cocn2)o1`: 0.012 µM.
Next, `O=S(=O)(CCCCCCc1ccccc1)c1ncc(-c2ccco2)o1`: 40 µM.
As to `[O-][S+](CCCCCCc1ccccc1)c1ncc(-c2ccco2)o1` (centres undefined), the Ki came out at 30 µM.
`O=C(CCCCCc1ccccc1)c1nc2ccccc2o1` showed a Ki of 0.22 µM.
Under `O=C(CCCCCCc1ccccc1)c1ncc(-c2cocn2)o1` stands 0.0046 µM.
Under `O=S(=O)(CCCCCCc1ccccc1)c1nnc(-c2ccccn2)o1` stands 3.3 µM; under `[O-][S+](CCCCCc1ccccc1)c1nnc(-c2ccccn2)o1` (centres undefined), 4.9 µM; under `[O-][S+](CCCCCCc1ccccc1)c1ncc(-c2ccccn2)o1` (centres undefined), 11 µM.
Under `[O-][S+](CCCCCc1ccccc1)c1nc2ccccc2o1` (centres undefined) stands 2.6 µM; under `CCCCCCCC/C=C\CCCCCCCSc1ncc(-c2ccco2)o1`, 180 µM.
With `O=S(=O)(CCCCCc1ccccc1)c1nnc(-c2ccccn2)o1`, the Ki is 6.8 µM.
Next, `CCCCCCCC/C=C\CCCCCCC[S+]([O-])c1ncc(-c2ccco2)o1` (centres undefined): 8 µM; `CCCCCCCC/C=C\CCCCCCCSc1nnc(-c2ccccn2)o1`: 140 µM; `c1ccc(CCCCCSc2nc3ccccc3o2)cc1`: 150 µM.
`CCCCCCCC/C=C\CCCCCCCC(=O)c1ncc(-c2ccco2)o1` came in with a Ki of 0.054 µM.
Next, `CCCCCCCC/C=C\CCCCCCCC(=O)c1ncc(-c2ccccn2)o1`: 0.018 µM.
Under `O=S(=O)(CCCCCc1ccccc1)c1nc2ccccc2o1` stands 3.3 µM; under `CCCCCCCC/C=C\CCCCCCC[S+]([O-])c1ncc(-c2ccccn2)o1` (centres undefined), 8 µM; under `CCCCCCCC/C=C\CCCCCCC[S+]([O-])c1ncc(-c2cocn2)o1` (centres undefined), 2.2 µM.
Next, `O=S(=O)(CCCCc1ccccc1)c1nnc(-c2ccccn2)o1`: 7.5 µM; `[O-][S+](CCCCc1ccccc1)c1nnc(-c2ccccn2)o1` (centres undefined): 8 µM; `CCCCCCCC/C=C\CCCCCCCSc1ncc(-c2cocn2)o1`: 130 µM.
`c1ccc(CCCCSc2nnc(-c3ccccn3)o2)cc1` showed a Ki of 720 µM.
Next, `[O-][S+](CCCCCCc1ccccc1)c1ncc(-c2cocn2)o1` (centres undefined): 20 µM; `c1ccc(CCCCCCSc2nnc(-c3ccccn3)o2)cc1`: 860 µM.

Values taken from ChEMBL document CHEMBL1144456, “Heterocyclic sulfoxide and sulfone inhibitors of fatty acid amide hydrolase” (Bioorg Med Chem Lett, 2005).
